Data published in patent US12297189B2, “Crystalline forms of a 4-pyrimidinesulfamide derivative aprocitentan” (IDORSIA PHARMACEUTICALS LTD, priority 2017, dated 2025).

Legend:
[1] = Storage at room temperature of crystalline forms (XRPD, HPLC control); assay type: physicochemical; settings: 20-25° C.
Description: All XRPD patterns for the solid forms described herein have been obtained as described hereafter. X-ray powder diffraction patterns were collected on a Bruker D8 Advance X-ray diffractometer equipped with a Lynxeye detector operated with CuKα-radiation in reflection mode (coupled two Theta/Theta). Typically, the X-ray tube was run at of 40 kV/40 mA. A step size of 0.02° (2θ) and a step time of 76.8 see over a scanning range of 3-500 in 2θ were applied. The divergence slit was set to fixed 0.3. Powders were slightly pressed into a silicon single crystal sample holder with depth of 0.5 mm and samples were rotated in their own plane during the measurement. Diffraction data are reported using combined Cu Kα1 and Kα2 radiation, without Kα2 stripping. The accuracy of the 2θ values as provided herein is in the range of +/−0.1-0.2° as it is generally the case for conventionally recorded X-ray powder diffraction patterns. A sample of Form A crystals of the COMPOUND (as obtained according to Example 1 above) has been stored at a temperature of 20-25° C. at 92% relative humidity for 2 months. […] The same result was obtained after storage for 8 weeks under the above coditions. […] A sample of Form B crystals of a dichloromethane solvate of the COMPOUND (as obtained according to Example 2 above) has been stored in a closed vial (20 mg of Form B crystals being placed in a closed 4 mL vial) at a temperature of 20-25° C. for about 3 weeks. […] A sample of Form K crystals of a dimethylsulfoxide solvate of the COMPOUND (as obtained according to Example 7 above) has been stored in a closed vial (20 mg of Form K crystals being placed in a closed 4 mL vial) at a temperature of 20-25° C. for about 3 weeks.

[2] = system: conscious, male spontaneaously hypertensive rats; test: Acute effects on MAP and HR by telemetry in spontaneously hypertensive rats; assay type: in vivo, rat; settings: SHRs, doses 1-300 mg/kg
Description: The acute effects of COMPOUND on blood pressure, in particular on mean arterial blood pressure (hereafter “MAP”), and heart rate (hereafter “HR”) were evaluated by means of telemetry in conscious, male spontancaously hypertensive rats (hereafter “SHRs”—see details about this model in Atanur et al., Genome Res. (2010), 20, 791-803). Groups of 4-6 SHRs were used for the vehicle (7.5% gelatin aquous solution) and each dose of COMPOUND tested (1, 3, 10, 30, 100, and 300 mg/kg). Effects of COMPOUND on HR and MAP were calculated for individual animals relative to the 24 h period before administering. The results obtained regarding MAP (maximal MAP decrease observed over 6 consecutive hours) are summarised in FIG. 11 (data are presented as mean±standard error of the mean). […] In contrast to MAP, HR was not affected.

[3] = system: conscious, male hypertensive deoxycorticosterone acetate salt rats; test: Acute effects on MAP and HR by telemetry in DOCA-salt rats; assay type: in vivo, rat; settings: doses 0.3-300 mg/kg
Description: The acute effects of COMPOUND on blood pressure, in particular on mean arterial blood pressure (hereafter “MAP”), and heart rate (hereafter “HR”) were evaluated by means of telemetry in conscious, male hypertensive deoxycorticosterone acetate salt rats (hereafter “DOCA-salt rats”—see details about this model in Gavras et al., Circ. Res. (1975), 36, 300-309). In the DOCA-salt rats, hypertension is induced by the combination of unilateral nephrectomy, implantation of pellets of the mineralocorticoid analog DOCA, and provision of 1% sodium chloride in drinking water. Groups of 6-11 DOCA-salt rats were used for the vehicle (7.5% gelatin aquous solution) and each dose of COMPOUND tested (0.3, 1, 3, 10, 30, 100, and 300 mg/kg). Effects of COMPOUND on HR and MAP were calculated for individual animals relative to the 24 h period before administering. The results obtained regarding MAP (maximal MAP decrease observed over 6 consecutive hours) are summarised in FIG. 10 (data are presented as mean±standard error of the mean). […] In contrast to MAP, HR was not affected.

[4] = system: subjects having essential hypertension; settings: phase 2 trial, cited from earlier work
[5] = system: conscious, male hypertensive deoxycorticosterone acetate salt rats; test: Chronic effects of repeated oral administration in DOCA-salt rats; assay type: in vivo, rat; settings: oral 1, 10 and 100 mg/kg/day for 4 weeks
Description: The chronic effects of repeated administrations of doses of 1, 10 and 100 mg/kg/day of COMPOUND, in particular mean arterial blood pressure (hereafter “MAP”), and heart rate (hereafter “HR”), were evaluated in conscious, male hypertensive deoxycorticosterone acetate salt rats (hereafter “DOCA-salt rats”—see details about this model in Gavras et al., Circ. Res. (1975), 36, 300-309). In the DOCA-salt rats, hypertension is induced by the combination of unilateral nephrectomy, implantation of pellets of the mineralocorticoid analog DOCA, and provision of 1% sodium chloride in drinking water. The results of the DOCA-salt rats treated with COMPOUND were compared to those obtained for Wistar rats or for DOCA-salt rats that received only the vehicle (4% gelatin aquous solution). • a) The results obtained regarding MAP are summarised in FIG. 16 wherein each data point is presented as a 24-hour mean. 6 rats were used for each of the 5 test groups (Wistar control rats [bottom line], DOCA-salt control rats [2nd line from top at day 28] and DOCA-salt rats receiving repeated administrations of doses of 1 mg/kg/day [top line at day 28], 10 mg/kg/day [3rd line from top at day 28] and 100 mg/kg/day [4th line from top at day 28] of COMPOUND).

[6] = system: conscious, male hypertensive Dahl salt-sensitive rats; test: Acute effects on MAP and HR by telemetry in Dahl salt-sensitive rats; assay type: in vivo, rat; settings: Dahl-S rats, doses 0.3-300 mg/kg
Description: The acute effects of COMPOUND on blood pressure, in particular on mean arterial blood pressure (hereafter “MAP”), and heart rate (hereafter “HR”) were evaluated by means of telemetry in conscious, male hypertensive Dahl salt-sensitive rats (hereafter “Dahl-S rats”-see details about this model in Rapp, Hypertension (1982), 4, 753-763). Elevated blood pressure is induced in Dahl-S rats by providing 1% sodium chloride in drinking water. Groups of 6-7 Dahl-S rats were used for the vehicle (7.5% gelatin aquous solution) and each dose of COMPOUND tested (0.3, 1, 3, 10, 30, 100, and 300 mg/kg). Effects of COMPOUND on HR and MAP were calculated for individual animals relative to the 24 h period before administering. The results obtained regarding MAP (maximal MAP decrease observed over 6 consecutive hours) are summarised in FIG. 9 (data are presented as mean±standard error of the mean). […] In contrast to MAP, HR was not affected.

[7] = system: male Wistar rats; test: Effect on fluid retention (haematocrit) in Wistar rats; assay type: in vivo, rat; settings: single oral dose 1-30 mg/kg, 24 hours after administration
Description: A decrease in haematocrit (Hct) or haemoglobin occurs secondary to an increase in plasma volume and can be used as a marker of fluid retention. A single oral dose of aprocitentan (1-30 mg/kg) or vehicle (gelatin) was administered by gavage to male Wistar rats. Twenty-four hours after administration, sublingual blood was sampled under isoflurane-induced anesthesia. Haematocrit was measured using a hematology analyser.

[8] = Hygroscopicity by gravimetric vapour sorption (GVS); assay type: physicochemical; settings: 25° C., mass change between 40% and 80% RH, first adsorption scan
Description: Measurements are performed on a multi sample instrument SPS-100n (Projekt Messtechnik, Ulm, Germany) operated in stepping mode at 25° C. The sample is allowed to equilibrate at 40% RH before starting a pre-defined humidity program (40-0-95-0-95-40% RH, steps of 5% ΔRH and with a maximal equilibration time of 24 hours per step are applied. About 20 to 30 mg of each sample is used.
The mass change between 40% relative humidity and 80% relative humidity in the first adsorption scan is considered.
Form A e.g. as obtained from Example 1 is considered to be non-hygroscopic as determined by gravimetric vapor sorption (GVS) (see FIG. 19).

[9] = system: patients with diabetes; settings: cited from earlier work
[10] = system: patients with rHT; settings: 14 week phase 3 trial; cited from earlier work

In the case of NS(=O)(=O)Nc1ncnc(OCCOc2ncc(Br)cn2)c1-c1ccc(Br)cc1 [Form B, {5-(4-bromo-phenyl)-6-[2-(5-bromo-pyrimidin-2-yloxy)-ethoxy]-pyrimidin-4-yl}-sulfamide], the “solid form by X-ray powder diffraction after storage” value ([1]; closed vial, about 3 weeks) is reported as “transformed into Form A crystals”.
For NS(=O)(=O)Nc1ncnc(OCCOc2ncc(Br)cn2)c1-c1ccc(Br)cc1 [COMPOUND, {5-(4-bromo-phenyl)-6-[2-(5-bromo-pyrimidin-2-yloxy)-ethoxy]-pyrimidin-4-yl}-sulfamide], the “effect on heart rate (HR)” value [2] is listed as “not affected”, the “effect on heart rate (HR)” value [3] is listed as “not affected” and the body weight ([4]; at higher doses) is listed as “increased body weight at higher doses”. The “cases of peripheral edema” value ([4]; at higher doses) was “four”, the “control of blood pressure” value ([4]; essential hypertension, monotherapy) was “may result in efficacious control of blood pressure” and the hemoglobin concentration [4] was “dose related decrease”. The “effect on DOCA-salt-induced increase in MAP” value [5] was “dose-dependently attenuated the DOCA-salt-induced increase in MAP”, the “effect on heart rate (HR)” value [5] was “without changing HR” and the “effect on heart rate (HR)” value [6] was “not affected”. The “haematocrit (Hct), marker of fluid retention” value [7] was “did not impact on haematocrit”.
For NS(=O)(=O)Nc1ncnc(OCCOc2ncc(Br)cn2)c1-c1ccc(Br)cc1 [Form A, {5-(4-bromo-phenyl)-6-[2-(5-bromo-pyrimidin-2-yloxy)-ethoxy]-pyrimidin-4-yl}-sulfamide], the “hygroscopicity (GVS)” value [8] was “non-hygroscopic”, the “solid form by X-ray powder diffraction after storage” value ([1]; 92% relative humidity, 2 months) was “still consisting only in Form A crystals” and the “degradation by HPLC control (peak area %) after storage” value ([1]; 92% relative humidity, 8 weeks) was “no significant degradation”.
In the case of COc1ccccc1Oc1c(NS(=O)(=O)c2ccc(C)cn2)nc(-c2ccncc2)nc1OC [avosentan], the “treatment effect (reduction of proteinuria)” value [9] is listed as “showed significant treatment effect” and the “discontinuation of trial medications due to adverse events” value ([9]; predominantly fluid overload and congestive heart failure) is listed as “significantly increased discontinuation”.
For COc1cc(OC)nc(O[C@H](C(=O)O)C(OC)(c2ccccc2)c2ccccc2)n1 [darusentan], the “withdrawal because of adverse events as compared with placebo” value [10] is listed as “More patients withdrew”.
For NS(=O)(=O)Nc1ncnc(OCCOc2ncc(Br)cn2)c1-c1ccc(Br)cc1 [Form C, {5-(4-bromo-phenyl)-6-[2-(5-bromo-pyrimidin-2-yloxy)-ethoxy]-pyrimidin-4-yl}-sulfamide], the “hygroscopicity (GVS)” value [8] was “slightly hygroscopic (increase in mass is less than 2% and equal to or greater than 0.2% mass/mass)”.
